Legend:
[1] = tested on: AMPA receptors in cerebral white matter; experiment: Intracerebral AMPA injection white matter injury; assay type: in vivo; details: P7 rats, 5 nmol AMPA plus 5 nmol MK-801, systemic NBQX post-treatment, t test p<0.005
Protocol: The methods used in this example are described in Follett et al. (2000) J. Neurosci. 20:9235-9241, incorporated by reference herein.
NBQX attenuation of the selective white matter injury after hypoxia/ischemia implicated GluR-mediated toxicity as an important mechanism of injury in immature OLs. To confirm a relationship between the activation of AMPA receptors in cerebral white matter and the vulnerability to injury, AMPA was injected directly into immature white matter. […] Minimal to no injury was present in vehicle-injected controls (M K801 alone; n=7) at the same age (t test, p<0.001).
To determine whether AMPA toxicity was age dependent, lesion size after intracerebral AMPA injections at P4, P7, and P11 was compared.

A2B5+ OL precursor cells = experiment: Cell proliferation (BrdU incorporation) in OL precursor cultures; assay type: cell-based, rat; details: topiramate 30 μM, NBQX 100 μM; 24 hours, BrdU last 2 hours
Protocol: Primary oligodendrocyte precursor cells were isolated from mixed glial cultures of the forebrains of newborn Sprague-Dawley rats using a selective detachment procedure as described in detail elsewhere (McCarthy and de Vellis, 1980; Back et al., 1998), and further purified by differential adhesion (Back et al., 1998). Precursor cells were maintained in a chemically-defined medium (CDM) supplemented with recombinant human platelet derived growth factor-AA (PDGF, 10 ng/ml) and basic fibroblast growth factor (bFGF, 10 ng/ml). […]
Cell proliferation was measured by determining the incorporation of the thymidine analog 5-bromo-2′-deoxyuridine (BrdU, […]) into replicating DNA of cells during the last 2 hr of the experiment. […] After the cells were incubated in a solution containing 2% BSA and 0.2% Triton X-100 for 30 min, BrdU incorporation was detected employing a murine monoclonal anti-BrdU antibody (Chemicon) and FITC-conjugated goat anti-mouse IgG. Quantitative analysis was performed by determining the percent of BrdU^+ cells in the A2B5^+ population. […] All assays were performed in triplicate and at least 1000 cells counted for each data point.
The proliferative capability of the cells was measured by the incorporation of the thymidine analog BrdU into DNA. […] A quantitative analysis was obtained by counting the number of BrdU^+ cells in the A2B5^+ population and calculating a percent. […]

NS(=O)(=O)c1cccc2c1c([N+](=O)[O-])cc1nc(O)c(O)nc12 [NBQX, 2,3-Dioxo-6-nitro-1,2,3,4-tetrahydrobenzo[f]quinoxaline-7-sulphonamide] was tested, and the “white matter injury (lesion size) after intracerebral AMPA” value [1] was “significantly attenuated white matter injury” and the “rate of BrdU incorporation (% BrdU+/A2B5+)” value (A2B5+ OL precursor cells) was “Neither topiramate or NBQX altered the rate of BrdU incorporation”.

With CC1(C)O[C@@H]2[C@@H](CO[C@@]3(COS(N)(=O)=O)OC(C)(C)O[C@@H]23)O1 [topiramate] the “rate of BrdU incorporation (% BrdU+/A2B5+)” value (A2B5+ OL precursor cells) was “Neither topiramate or NBQX altered the rate of BrdU incorporation”.
